The values below are quoted from earlier work in patent publication US8623868B2, “Processes of making and using pharmaceutical formulations of antineoplastic agents” (Merck Sharp & Dohme Corp., priority 2002, dated 2014).

Data set [1] relates to advanced melanoma. The conditions noted are these: patients with advanced melanoma; Journal of Clinical Oncology 13(4) 1995.
Data set [2] has as its system advanced melanoma. The note with it: patients having advanced melanoma; Newlands et al., Br J Cancer 1992.

As for `Cn1nnc2c(C(N)=O)ncn2c1=O` [Temozolomide], the water solubility entry is given as “water-insoluble”. Also, the “clinical response achieved, % of patients” value in data set [1] is given as 21%. For the same compound, in data set [2], the “clinical responses achieved, % of patients” value is given as 17%.
